Reference: patent publication EP4755888A1 (ILAb Co., Ltd., priority 2023, dated 2025)

Biological target: PD-1/PD-L1 (Homo sapiens, UniProt Q9NZQ7)
Assay: TR-FRET PD-1/PD-L1 binding inhibition at the molecular level (free proteins)
Details: Tag1-PD-L1 and Tag2-PD-1 proteins, twelve concentrations from 200 nM, 2 hours at room temperature, read-out: FRET assay (IC50)
In short: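 HTRF read-out at 665/620 nm after 2 h at room temperature. Detection used anti-Tag1 Eu cryptate plus anti-Tag2 XL665 antibodies. Tagged PD-L1 and PD-1 proteins were pre-mixed with compound across twelve […] 1:2 dilutions starting at 200 nM.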

PD-1/PD-L1, sequence (Q9NZQ7 19-238 limits assumed): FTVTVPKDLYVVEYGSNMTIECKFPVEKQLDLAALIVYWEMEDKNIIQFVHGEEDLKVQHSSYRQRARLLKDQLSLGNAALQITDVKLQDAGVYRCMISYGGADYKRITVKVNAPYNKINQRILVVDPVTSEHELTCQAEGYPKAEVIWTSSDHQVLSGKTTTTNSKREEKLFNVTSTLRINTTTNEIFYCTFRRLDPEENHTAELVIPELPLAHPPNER

| IC50 | Structure (SMILES) |
| --- | --- |
| 0.01 to 0.1 µM | CC(C)(N[C@H]1CCCn2nc(C(=O)Nc3cccc(-c4cccc(Nc5nc(C(F)F)nc6cc(CN7CC[C@@H](O)C7)cnc56)c4Cl)c3Cl)cc21)C(=O)O [Compound 258, 2-(((S)-2-((2,2'-dichloro-3'-((2-(difluoromethyl)-7-(((R)-3-hydroxypyrrolidin-1-yl)methyl)pyrido[3,2-d]pyrimidin-4-yl)amino)-[1,1'-biphenyl]-3-yl)carbamoyl)-4,5,6,7-tetrahydropyrazolo[1,5-a]pyridin-4-yl)amino)-2-methylpropanoic acid] |
| 0.01 to 0.1 µM | CC(C)(N[C@@H]1CCCn2nc(C(=O)Nc3cccc(-c4cccc(Nc5nc(C(F)F)nc6cc(CN7CC[C@@H](O)C7)cnc56)c4Cl)c3Cl)cc21)C(=O)O [Compound 259, 2-(((R)-2-((2,2'-dichloro-3'-((2-(difluoromethyl)-7-(((R)-3-hydroxypyrrolidin-1-yl)methyl)pyrido[3,2-d]pyrimidin-4-yl)amino)-[1,1'-biphenyl]-3-yl)carbamoyl)-4,5,6,7-tetrahydropyrazolo[1,5-a]pyridin-4-yl)amino)-2-methylpropanoic acid] |
| < 0.01 µM | O=C(Nc1cccc(-c2cccc(Nc3nc(C(F)F)nc4cc(CN5CC[C@@H](O)C5)cnc34)c2Cl)c1Cl)c1cc2n(n1)CCC[C@@H]2N1CC(C(=O)O)C1 [Compound 261, 1-((S)-2-((2,2'-dichloro-3'-((2-(difluoromethyl)-7-(((R)-3-hydroxypyrrolidin-1-yl)methyl)pyrido[3,2-d]pyrimidin-4-yl)amino)-[1,1'-biphenyl]-3-yl)carbamoyl)-4,5,6,7-tetrahydropyrazolo[1,5-a]pyridin-4-yl)azetidine-3-carboxylic acid] |
| < 0.01 µM | Cc1c(NC(=O)c2cc3n(n2)CCC[C@@H]3N2CCC(C(=O)O)CC2)cccc1-c1cccc(Nc2nc(C(F)F)nc3cc(CN4CC[C@@H](O)C4)cnc23)c1C [Compound 267, 1-((S)-2-((3'-((2-(difluoromethyl)-7-(((R)-3-hydroxypyrrolidin-1-yl)methyl)pyrido[3,2-d]pyrimidin-4-yl)amino)-2,2'-dimethyl-[1,1'-biphenyl]-3-yl)carbamoyl)-4,5,6,7-tetrahydropyrazolo[1,5-a]pyridin-4-yl)piperidine-4-carboxylic acid] |
| 0.01 to 0.1 µM | Cc1c(NC(=O)c2cc3n(n2)CCC[C@H]3N2CCC(C(=O)O)CC2)cccc1-c1cccc(Nc2nc(C(F)F)nc3cc(CN4CC[C@@H](O)C4)cnc23)c1C [Compound 268, 1-((R)-2-((3'-((2-(difluoromethyl)-7-(((R)-3-hydroxypyrrolidin-1-yl)methyl)pyrido[3,2-d]pyrimidin-4-yl)amino)-2,2'-dimethyl-[1,1'-biphenyl]-3-yl)carbamoyl)-4,5,6,7-tetrahydropyrazolo[1,5-a]pyridin-4-yl)piperidine-4-carboxylic acid] |
| 0.01 to 0.1 µM | O=C(Nc1cccc(-c2cccc(Nc3nc(C(F)F)nc4cc(CN5CC(F)C5)cnc34)c2Cl)c1Cl)c1cc2n(n1)CCC[C@@H]2N1CCC(O)CC1 [Compound 269, (S)-N-(2,2'-dichloro-3'-((2-(difluoromethyl)-7-((3-fluoroazetidin-1-yl)methyl)pyrido[3,2-d]pyrimidin-4-yl)amino)-[1,1'-biphenyl]-3-yl)-4-(4-hydroxypiperidin-1-yl)-4,5,6,7-tetrahydropyrazolo[1,5-a]pyridine-2-carboxamide] |
| 0.01 to 0.1 µM | O=C(Nc1cccc(-c2cccc(Nc3nc(C(F)F)nc4cc(CN5CC(F)C5)cnc34)c2Cl)c1Cl)c1cc2n(n1)CCC[C@H]2N1CCC(O)CC1 [Compound 270, (R)-N-(2,2'-dichloro-3'-((2-(difluoromethyl)-7-((3-fluoroazetidin-1-yl)methyl)pyrido[3,2-d]pyrimidin-4-yl)amino)-[1,1'-biphenyl]-3-yl)-4-(4-hydroxypiperidin-1-yl)-4,5,6,7-tetrahydropyrazolo[1,5-a]pyridine-2-carboxamide] |
| 0.01 to 0.1 µM | O=C(Nc1cccc(-c2cccc(Nc3nc(C(F)F)nc4cc(CN5CC(F)(F)C5)cnc34)c2Cl)c1Cl)c1cc2n(n1)CCC[C@@H]2N1CCC(O)CC1 [Compound 271, (S)-N-(2,2'-dichloro-3'-((7-((3,3-difluoroazetidin-1-yl)methyl)-2-(difluoromethyl)pyrido[3,2-d]pyrimidin-4-yl)amino)-[1,1'-biphenyl]-3-yl)-4-(4-hydroxypiperidin-1-yl)-4,5,6,7-tetrahydropyrazolo[1,5-a]pyridine-2-carboxamide] |
| 0.01 to 0.1 µM | O=C(Nc1cccc(-c2cccc(Nc3nc(C(F)F)nc4cc(CN5CC(F)(F)C5)cnc34)c2Cl)c1Cl)c1cc2n(n1)CCC[C@H]2N1CCC(O)CC1 [Compound 272, (R)-N-(2,2'-dichloro-3'-((7-((3,3-difluoroazetidin-1-yl)methyl)-2-(difluoromethyl)pyrido[3,2-d]pyrimidin-4-yl)amino)-[1,1'-biphenyl]-3-yl)-4-(4-hydroxypiperidin-1-yl)-4,5,6,7-tetrahydropyrazolo[1,5-a]pyridine-2-carboxamide] |
| 0.01 to 0.1 µM | O=C(Nc1cccc(-c2cccc(Nc3nc(C(F)(F)F)nc4cccnc34)c2Cl)c1Cl)c1cc2n(n1)CCC[C@H]2N1CCC(C(=O)O)CC1 [Compound 274, (R)-1-(2-((2,2'-dichloro-3'-((2-(trifluoromethyl)pyrido[3,2-d]pyrimidin-4-yl)amino)-[1,1'-biphenyl]-3-yl)carbamoyl)-4,5,6,7-tetrahydropyrazolo[1,5-a]pyridin-4-yl)piperidine-4-carboxylic acid] |

The next lines start with the compound.

| Structure (SMILES) | IC50 |
| --- | --- |
| O=C(Nc1cccc(-c2cccc(Nc3nccc4nccnc34)c2Cl)c1Cl)c1cc2n(n1)CCC[C@H]2N1CCC(C(=O)O)CC1 [Compound 256, (R)-1-(2-((2,2'-dichloro-3'-(pyrido[3,4-b]pyrazin-5-ylamino)-[1,1'-biphenyl]-3-yl)carbamoyl)-4,5,6,7-tetrahydropyrazolo[1,5-a]pyridin-4-yl)piperidine-4-carboxylic acid] | 0.01 to 0.1 µM |
| O=C(Nc1cccc(-c2cccc(Nc3nccc4nccnc34)c2Cl)c1Cl)c1cc2n(n1)CCC[C@@H]2N1CCC(C(=O)O)CC1 [Compound 257, (S)-1-(2-((2,2'-dichloro-3'-(pyrido[3,4-b]pyrazin-5-ylamino)-[1,1'-biphenyl]-3-yl)carbamoyl)-4,5,6,7-tetrahydropyrazolo[1,5-a]pyridin-4-yl)piperidine-4-carboxylic acid] | 0.01 to 0.1 µM |
| CC(C)(N[C@@H]1CCCn2nc(C(=O)Nc3cccc(-c4cccc(Nc5nccc6nccnc56)c4Cl)c3Cl)cc21)C(=O)O [Compound 259-1, (R)-2-((2-((2,2'-dichloro-3'-(pyrido[3,4-b]pyrazin-5-ylamino)-[1,1'-biphenyl]-3-yl)carbamoyl)-4,5,6,7-tetrahydropyrazolo[1,5-a]pyridin-4-yl)amino)-2-methylpropanoic acid] | 0.01 to 0.1 µM |
| CC(C)(N[C@H]1CCCn2nc(C(=O)Nc3cccc(-c4cccc(Nc5nccc6nccnc56)c4Cl)c3Cl)cc21)C(=O)O [Compound 260, (S)-2-((2-((2,2'-dichloro-3'-(pyrido[3,4-b]pyrazin-5-ylamino)-[1,1'-biphenyl]-3-yl)carbamoyl)-4,5,6,7-tetrahydropyrazolo[1,5-a]pyridin-4-yl)amino)-2-methylpropanoic acid] | 0.01 to 0.1 µM |
| O=C(Nc1cccc(-c2cccc(Nc3nccc4nccnc34)c2Cl)c1Cl)c1cc2n(n1)CCC[C@H]2N1CC(C(=O)O)C1 [Compound 263, (R)-1-(2-((2,2'-dichloro-3'-(pyrido[3,4-b]pyrazin-5-ylamino)-[1,1'-biphenyl]-3-yl)carbamoyl)-4,5,6,7-tetrahydropyrazolo[1,5-a]pyridin-4-yl)azetidine-3-carboxylic acid] | < 0.01 µM |
| O=C(Nc1cccc(-c2cccc(Nc3nccc4nccnc34)c2Cl)c1Cl)c1cc2n(n1)CCC[C@@H]2N1CC(C(=O)O)C1 [Compound 264, (S)-1-(2-((2,2'-dichloro-3'-(pyrido[3,4-b]pyrazin-5-ylamino)-[1,1'-biphenyl]-3-yl)carbamoyl)-4,5,6,7-tetrahydropyrazolo[1,5-a]pyridin-4-yl)azetidine-3-carboxylic acid] | < 0.01 µM |
| Cc1c(NC(=O)c2ccc(CN3CC[C@@H](O)C3)cn2)cccc1-c1cccc(NC(=O)c2cc3n(n2)CCC[C@@H]3N2CC(C(=O)O)C2)c1C [Compound 265, 1-((S)-2-((3'-(5-(((R)-3-hydroxypyrrolidin-1-yl)methyl)picolinamido)-2,2'-dimethyl-[1,1'-biphenyl]-3-yl)carbamoyl)-4,5,6,7-tetrahydropyrazolo[1,5-a]pyridin-4-yl)azetidine-3-carboxylic acid] | < 0.01 µM |
| O=C(Nc1cccc(-c2cccc(Nc3nc(C(F)(F)F)nc4cccnc34)c2Cl)c1Cl)c1cc2n(n1)CCC[C@@H]2N1CCC(C(=O)O)CC1 [Compound 273, (S)-1-(2-((2,2'-dichloro-3'-((2-(trifluoromethyl)pyrido[3,2-d]pyrimidin-4-yl)amino)-[1,1'-biphenyl]-3-yl)carbamoyl)-4,5,6,7-tetrahydropyrazolo[1,5-a]pyridin-4-yl)piperidine-4-carboxylic acid] | 0.01 to 0.1 µM |
| CC(C)(N[C@H]1CCCn2nc(C(=O)Nc3cccc(-c4cccc(Nc5nc(C(F)(F)F)nc6cccnc56)c4Cl)c3Cl)cc21)C(=O)O [Compound 275, (S)-2-((2-((2,2'-dichloro-3'-((2-(trifluoromethyl)pyrido[3,2-d]pyrimidin-4-yl)amino)-[1,1'-biphenyl]-3-yl)carbamoyl)-4,5,6,7-tetrahydropyrazolo[1,5-a]pyridin-4-yl)amino)-2-methylpropanoic acid] | 0.01 to 0.1 µM |
| CC(C)(N[C@@H]1CCCn2nc(C(=O)Nc3cccc(-c4cccc(Nc5nc(C(F)(F)F)nc6cccnc56)c4Cl)c3Cl)cc21)C(=O)O [Compound 276, (R)-2-((2-((2,2'-dichloro-3'-((2-(trifluoromethyl)pyrido[3,2-d]pyrimidin-4-yl)amino)-[1,1'-biphenyl]-3-yl)carbamoyl)-4,5,6,7-tetrahydropyrazolo[1,5-a]pyridin-4-yl)amino)-2-methylpropanoic acid] | < 0.01 µM |
